Experiments:
5-HT2 receptor = assay: DOI-induced head twitch model in mice; type: in vivo; conditions: p.o., 0.5 hr before s.c. DOI
[1] = system: NMDA receptor currents in mPFC neurons; assay: NMDA-induced currents in rat mPFC slices, whole-cell patch clamp; type: cell-based
From the text: (§1) Combined administration of the antipsychotic, olanzapine, and the SSRI, fluoxetine, similarly induces rapid antidepressant activity in humans and animals (Tohen et al., 2010); likewise, combined application of olanzapine and fluoxetine is required to induce AMPA receptor currents in vitro.

D2 = D2 (Homo sapiens (Human), UniProt P14416)
[2] = Clinical studies in patients with acute exacerbated schizophrenia; type: in vivo, human; conditions: 60 mg P.O. once daily, up to 28 days
From the text: Social avoidance can be a critical and debilitating symptom in patients suffering from anxiety disorders, especially social anxiety disorder, as well as in patients suffering from traumatic anxiety disorders. Social avoidance is often one of the key determinants of whether a person with a severe anxiety disorder is capable of maintaining familial relationships or employment relationships. […] Negative symptoms of schizophrenia can be divided into two categories: emotional experience (e.g., emotional withdrawal, passive social withdrawal, active social avoidance) and emotional expression (e.g., blunted effect, poor rapport, lack of spontancity, and motor retardation). […] These are the symptoms that are most highly correlated with interpersonal functioning.

mTOR (at Serine 2448) = assay: Phosphorylation of mTOR pathway proteins in rat PFC: mTOR; type: in vivo; conditions: one i.p. injection; ketamine 30 mg/kg, Formula A 3 mg/kg
AKT (at Threonine 308) = assay: Phosphorylation of mTOR pathway proteins in rat PFC: AKT; type: in vivo; conditions: 1 hour and 24 hours after one i.p. injection; ketamine 30 mg/kg, Formula A 3 mg/kg
[3] = system: P70s6 kinase (at Threonine 389); assay: Phosphorylation of mTOR pathway proteins in rat PFC: P70s6 kinase; type: in vivo; conditions: over 24 hours after one i.p. injection; ketamine 30 mg/kg, Formula A 3 mg/kg
mTORC1 signaling pathway = mTORC1 signaling pathway in mPFC of adult rats, dose range study; type: in vivo, rat; conditions: Formula A 1 to 8 mg/kg i.p.; ketamine 30 mg/kg; 60 min, 90 min or 24 hours
5-HT2A = 5-HT2A (Homo sapiens (Human), UniProt P28223)
[4] = system: AMPA receptor currents in mPFC neurons; assay: AMPA-induced currents in rat mPFC slices, whole-cell patch clamp; type: cell-based
From the text: as §1

[5] = 40-minute infusion, total dose 0.5 mg/kg; after 24 hours; cited from earlier work
[6] = bath applied 3-100 nM, 5 min later

## O=C1CN2c3c(cccc3[C@@H]3CN(CCCOc4ccc(F)cc4)CC[C@@H]32)N1 [Example 1, (6bR,10aS)-8-(3-(4-fluorophenoxy)propyl)-6b,7,8,9,10,10a-hexahydro-1H-pyrido[3′,4′:4,5]pyrrolo[1,2,3-de]quinoxalin-2(3H)-one]
5-HT2 receptor
  EC50 for reducing DOI-induced head twitches: 0.44 mg/kg

## CN1CCN2c3c(cccc31)[C@@H]1CN(CCCC(=O)c3ccc(F)cc3)CC[C@@H]12 [Formula A, lumateperone]
[1]; 30 nM
  NMDA-induced currents compared to control: ~150%
[1]; [6]
  NMDA currents: enhanced
D2
  Ki: 49 nM
[2]
  symptoms of emotional experience compared to placebo: significant and unexpected improvement
mTOR (at Serine 2448)
  change in mTOR phosphorylation: Neither ketamine nor the Compound of Formula A results in a change
AKT (at Threonine 308)
  increase in phosphorylation of AKT at thr308: ~50%
[3]
  p70s6K phosphorylation: progressively increases
mTORC1 signaling pathway
  activation of mTORC1 signaling pathway in mPFC (p-Akt thr308, p-P70S6K): rapidly activates the mTORC1 signaling pathway
5-HT2A
  Ki: 10 nM
[4]; 30 nM, alone and with SCH 23390 (1 μM)
  AMPA-induced currents compared to control: Substantially the same results
[4]; [6]
  AMPA currents: enhanced

## CNCCC(Oc1ccc(C(F)(F)F)cc1)c1ccccc1 (stereo not shown) [fluoxetine]
[4]; Rattus norvegicus, Neuron, 100 nM fluoxetine, read-out: AMPA-induced current, % of control
  activity at 0.1 µM: ~90%

## CNC1(c2ccccc2Cl)CCCCC1=O (stereo not shown) [ketamine]
mTOR (at Serine 2448)
  change in mTOR phosphorylation: Neither ketamine nor the Compound of Formula A results in a change
AKT (at Threonine 308)
  increase in phosphorylation of AKT at thr308: ~50%
[3]
  p70s6K phosphorylation: transiently increase
mTORC1 signaling pathway
  activation of mTORC1 signaling pathway in mPFC (p-Akt thr308, p-P70S6K): rapidly activates the mTORC1 signaling pathway
[5]
  ratings on the Hamilton Depression Rating Scale (HDRS) compared to placebo: significantly improved

## Cc1cc2c(s1)Nc1ccccc1N=C2N1CCN(C)CC1 [olanzapine]
[4]; Rattus norvegicus, Neuron, 3 nM olanzapine alone, read-out: AMPA-induced current, % of control
  activity at 0.003 µM: ~100%
